Test results from BindingDB's records for doi:10.7270/Q2XD103V (Vanderbilt Screening Center for GPCRs, Ion Channels and …, 2010).

What follows are compounds tested against T1, Muscarinic acetylcholine receptor M4 (Rattus norvegicus, UniProt P08485) (assay: M4 receptor positive allosteric modulators, SAR follow-up, cell-based, rat M4, analogs (AID 1938)).
T1 sequence (P08485 whole entry): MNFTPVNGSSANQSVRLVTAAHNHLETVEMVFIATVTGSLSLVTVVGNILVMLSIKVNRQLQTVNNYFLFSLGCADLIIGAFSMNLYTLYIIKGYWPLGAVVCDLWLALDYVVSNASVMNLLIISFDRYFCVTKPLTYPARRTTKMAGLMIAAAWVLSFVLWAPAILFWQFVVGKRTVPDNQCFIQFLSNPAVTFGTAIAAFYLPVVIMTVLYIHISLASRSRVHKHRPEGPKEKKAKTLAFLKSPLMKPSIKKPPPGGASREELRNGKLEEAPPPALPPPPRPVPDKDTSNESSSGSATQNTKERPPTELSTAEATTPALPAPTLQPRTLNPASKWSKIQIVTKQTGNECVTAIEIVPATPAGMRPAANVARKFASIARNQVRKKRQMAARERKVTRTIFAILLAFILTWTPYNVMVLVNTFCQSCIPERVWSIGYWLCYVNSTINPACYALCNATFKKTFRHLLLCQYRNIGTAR
`Cc1cc(C)c2c(N)c(C(=O)NCc3ccc4c(c3)OCO4)sc2n1` [3-amino-4,6-dimethyl-N-piperonyl-thieno[2,3-b]pyridine-2-carboxamide] gave an EC50 of 403 nM. Compound `COc1ccc(CNC(=O)c2sc3nc(OCc4ccncc4)cc(C)c3c2N)cc1` [3-amino-4-methyl-N-p-anisyl-6-(4-pyridylmethoxy)thieno[2,3-b]pyridine-2-carboxamide] has an EC50 of 1960 nM. `Cc1cc(OCc2ccncc2)nc2sc(C(=O)NCc3cccc(F)c3F)c(N)c12` [3-amino-N-(2,3-difluorobenzyl)-4-methyl-6-(4-pyridylmethoxy)thieno[2,3-b]pyridine-2-carboxamide] was tested, and the EC50 was 1670 nM.
